Measured values from patent US20090233937A1 (TAKEDA PHARMACEUTICAL COMPANY LIMITED, priority 2008, published 2009).

Target: T1, EGFR kinase (EGFR intracellular domain) (Homo sapiens, UniProt P00533)
T1 construct: made in house; host or cells: SF-21 insect cells infected with recombinant baculovirus BAC-EGFR
Assay: Determination of EGFR kinase inhibitory activity
Assay type: biochemical
Set-up: concentration or dose not given beside the values
Conditions: compound at 1.0 μL (so in the source), [γ-32P]ATP, poly-Glu:Tyr (4:1) substrate
Description: Human EGFR gene was cloned by RT-PCR using total RNA prepared from A431 cells as a template. The primer used for RT-PCR was prepared in consideration of the information of nucleotide sequence (Genbank Accession No. X00588) of EGFR gene by adding a nucleotide sequence encoding DYKDDDD peptide and a restriction enzyme recognition sequence to a nucleotide sequence (corresponding to 2191-3819 of Genbank Accession No. X00588 as a base, 669-1210 amino acids of Genbank Accession No. NP_005219 as a protein) encoding the EGFR intracellular domain region such that the protein contains an N-terminal DYKDDDD peptide tag. The primer nucleotide sequence is shown below.
(§1) SF-21 cells were sown at 1×10^6 cells/mL in Sf-900II SFM medium (1 L, Invitrogen) containing 10% fetal bovine serum (trace), 50 mg/L gentamicin (Invitrogen) and 0.1% Pluronic F-68 (Invitrogen), and shaking culture was performed using a 2 L volume Erlenmeyer flask at 27° C., 100 rpm. After culturing for 24 hrs, recombinant baculovirus BAC-EGFR (13.4 mL) was added, and the mixture was further cultured for 3 days. The culture medium was centrifuged at 2,000 rpm for 5 min to give virus-infected cells. The infected cells were washed with a phosphate buffered saline (Invitrogen), centrifuged under the same conditions, and the cells were preserved at −80° C. The cryopreserved cells were thawed in ice, suspended in buffer A (50 mM Tris buffer (30 mL, pH 7.4) containing 20% glycerol, 0.15 M NaCl) supplemented with Complete Protease Inhibitor (Boehringer), and ruptured 3 times with a Polytron homogenizer (Kinematica) at 20,000 rpm for 30 sec. The ruptured solution was clarified by centrifugation at 40,000 rpm for 30 min, and filtered with a 0.45 μm filter. The filtrate was passed through a column packed with Anti-FLAG M2 Affinity Gel (4 mL, Sigma-Aldrich) at a flow rate of about 0.5 mL/min. The column was washed with buffer A, and eluted with buffer A containing 100 μg/mL of FLAG peptide. The eluent was concentrated with Vivaspin 20 (Vivascience) having a molecular weight cut off of 30K. The concentrate was purified by gel filtration using Hi Load 16/60 Superdex 200 pg (GE Healthcare Bioscience) equilibrated with buffer A. The fractions containing EGFR intracellular domain were collected and cryopreserved at −80° C.
EGFR kinase reaction was performed using a 96 well plate. As a buffer for kinase reaction, a buffer having a composition of 50 mM Tris-HCl (pH 7.5), 5 mM MnCl2, 2 mM dithiothreitol, 0.01% Tween-20 was used. The compound of the present invention was dissolved in dimethyl sulfoxide (DMSO), and diluted with the kinase reaction buffer so that DMSO concentration would be 0.1% during kinase reaction. This compound solution (10 μL) was mixed with a kinase reaction buffer (20 μL) containing EGFR intracellular domain (0.625 μg/mL) obtained in Experimental Example 2B and polypeptide substrate poly-Glu:Tyr (4:1) (Sigma Ltd., 12.5 μg/mL), and the mixture was stood at room temperature for 5 min. […] A kinase reaction was performed at room temperature for 10 min, and the kinase reaction was quenched by addition of 20% TCA solution (50 μL). The mixture after completion of the reaction was stood at room temperature for 30 min, and acid insoluble fractions in the mixture after completion of the reaction were collected in a 96 well GF/C filter plate (PerkinElmer) using a cell harvester (PerkinElmer). Thereafter, the filter containing the acid insoluble fractions was washed with 3% phosphoric acid solution. After washing, the filter plate was dried at 45° C. for 60 min, and 25 μL of MicroScinti 0 (PerkinElmer) was added. The radioactivity was measured using TopCount (PerkinElmer). EGFR kinase inhibitory rate (%) of the test compound was calculated by the following formula:
Inhibitory rate (%)=(1−(count of test compound−blank)÷(control−blank))×100

T1 sequence (P00533 669-1210): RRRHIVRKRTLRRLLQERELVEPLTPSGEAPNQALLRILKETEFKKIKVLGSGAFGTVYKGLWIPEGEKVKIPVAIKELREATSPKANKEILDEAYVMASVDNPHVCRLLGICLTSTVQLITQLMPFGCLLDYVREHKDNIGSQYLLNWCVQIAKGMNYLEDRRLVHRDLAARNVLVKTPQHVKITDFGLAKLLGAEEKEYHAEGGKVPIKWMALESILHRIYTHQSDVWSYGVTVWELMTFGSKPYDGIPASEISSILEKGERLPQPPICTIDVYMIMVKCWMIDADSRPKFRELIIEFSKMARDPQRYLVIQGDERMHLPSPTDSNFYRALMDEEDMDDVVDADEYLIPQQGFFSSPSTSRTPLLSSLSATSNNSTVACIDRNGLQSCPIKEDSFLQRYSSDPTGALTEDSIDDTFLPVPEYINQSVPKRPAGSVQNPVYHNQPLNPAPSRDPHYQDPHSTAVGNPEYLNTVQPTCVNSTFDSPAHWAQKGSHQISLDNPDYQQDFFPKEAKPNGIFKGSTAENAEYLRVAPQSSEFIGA

Structure (SMILES) | inhibitory rate (%) at 1.0 μL [%]
Cn1ccc2ncnc(Nc3ccc(Oc4cccc5sncc45)c(Cl)c3)c21 [Example 1, N-[4-(1,2-benzoisothiazol-4-yloxy)-3-chlorophenyl]-5-methyl-5H-pyrrolo[3,2-d]pyrimidin-4-amine] | 99
CC(C)(CO)C(=O)NCCn1ccc2ncnc(Nc3ccc(Oc4cccc5sncc45)c(Cl)c3)c21 [Example 10, N-[2-(4-{[4-(1,2-benzoisothiazol-4-yloxy)-3-chlorophenyl]amino}-5H-pyrrolo[3,2-d]pyrimidin-5-yl)ethyl]-3-hydroxy-2,2-dimethylpropanamide] | 98
CC(=O)NCCn1ccc2ncnc(Nc3ccc(Oc4cccc5nscc45)c(Cl)c3)c21 [Example 12, N-[2-(4-{[4-(2,1-benzoisothiazol-4-yloxy)-3-chlorophenyl]amino}-5H-pyrrolo[3,2-d]pyrimidin-5-yl)ethyl]acetamide] | 95
CS(=O)(=O)CC(=O)NCCn1ccc2ncnc(Nc3ccc(Oc4cccc5sncc45)c(Cl)c3)c21.CS(=O)(=O)O [Example 24, N-[2-(4-{[4-(1,2-benzoisothiazol-4-yloxy)-3-chlorophenyl]amino}-5H-pyrrolo[3,2-d]pyrimidin-5-yl)ethyl]-2-(methylsulfonyl)acetamide methanesulfonate] | 100
OCCn1ccc2ncnc(Nc3ccc(Oc4cccc5sncc45)c(Br)c3)c21 [Example 45] | 99
CC(C)(N)CC(=O)NCCn1ccc2ncnc(Nc3ccc(Oc4cccc5sncc45)c(Cl)c3)c21 [Example 62, 3-amino-N-[2-(4-{[4-(1,2-benzoisothiazol-4-yloxy)-3-chlorophenyl]amino}-5H-pyrrolo[3,2-d]pyrimidin-5-yl)ethyl]-3-methylbutanamide] | 99

Target: T2, HER2 kinase (HER2 intracellular domain) (Homo sapiens, UniProt P04626)
T2 construct: made in house; host or cells: SF-21 insect cells infected with recombinant baculovirus BAC-HER2
T2 sequence (P04626 676-1255): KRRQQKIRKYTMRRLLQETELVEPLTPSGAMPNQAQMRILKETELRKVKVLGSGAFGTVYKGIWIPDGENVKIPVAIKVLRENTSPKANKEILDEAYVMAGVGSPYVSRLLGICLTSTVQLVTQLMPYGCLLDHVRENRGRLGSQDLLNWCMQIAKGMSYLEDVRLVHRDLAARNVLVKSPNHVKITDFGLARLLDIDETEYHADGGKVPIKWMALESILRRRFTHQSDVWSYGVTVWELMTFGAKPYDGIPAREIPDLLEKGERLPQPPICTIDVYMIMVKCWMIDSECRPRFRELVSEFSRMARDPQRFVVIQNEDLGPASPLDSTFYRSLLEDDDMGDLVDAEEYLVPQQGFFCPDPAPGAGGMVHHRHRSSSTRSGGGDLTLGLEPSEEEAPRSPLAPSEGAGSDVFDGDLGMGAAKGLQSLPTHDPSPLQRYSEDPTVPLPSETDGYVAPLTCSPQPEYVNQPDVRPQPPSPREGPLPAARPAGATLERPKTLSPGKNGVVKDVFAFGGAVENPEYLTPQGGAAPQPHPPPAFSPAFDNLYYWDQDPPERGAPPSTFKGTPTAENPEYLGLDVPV
Assay: Determination of HER2 kinase inhibitory activity
Assay type: biochemical
Set-up: concentration or dose not given beside the values
Conditions: compound at 1.0 μL (so in the source), [γ-32P]ATP, poly-Glu:Tyr (4:1) substrate
Description: Human HER2 gene was cloned by RT-PCR using total RNA prepared from MCF7 cells as a template. The primer used for RT-PCR was prepared in consideration of the information of nucleotide sequence (Genbank Accession No. M11730) of HER2 gene by adding a nucleotide sequence encoding DYKDDDD peptide and a restriction enzyme recognition sequence to a nucleotide sequence (corresponding to 2176-3918 of Genbank Accession No. M11730 as a base, 676-1255 amino acids of Genbank Accession No. NP_004439 as a protein) encoding the HER2 intracellular domain region such that the protein contains an N-terminal DYKDDDD peptide tag. The primer nucleotide sequence is shown below.
as §1, with “hr,” for “hrs,”, “BAC-HER2” for “BAC-EGFR”, “HER2” for “EGFR”
HER2 kinase reaction was performed using a 96 well plate. As a buffer for kinase reaction, a buffer having a composition of 50 mM Tris-HCl (pH 7.5), 5 mM MnCl2, 2 mM dithiothreitol, 0.01% Tween-20 was used. The compound of the present invention was dissolved in dimethyl sulfoxide (DMSO), and diluted with the kinase reaction buffer so that DMSO concentration would be 0.1% during kinase reaction. This compound solution (10 μL) was mixed with a kinase reaction buffer (20 μL) containing HER2 intracellular domain (0.625 μg/mL) obtained in Experimental Example 1B and polypeptide substrate poly-Glu:Tyr (4:1) (Sigma Ltd., 12.5 μg/mL), and the mixture was stood at room temperature for 5 min. Then, a kinase reaction buffer (20 μL) containing 125 μM ATP and 45 μCi/mL [γ-^32P]ATP was added, and the kinase reaction was initiated with 50 μL of the final reaction mixture. A kinase reaction was performed at room temperature for 10 min, and the kinase reaction was quenched by addition of 20% TCA solution (50 μL). The mixture after completion of the reaction was stood at room temperature for 30 min, and acid insoluble fractions in the mixture after completion of the reaction were collected in a 96 well GF/C filter plate (PerkinElmer) using a cell harvester (PerkinElmer). Thereafter, the filter containing the acid insoluble fractions was washed with 3% phosphoric acid solution. After washing, the filter plate was dried at 45° C. for 60 min, and 25 μL of MicroScinti 0 (PerkinElmer) was added. The radioactivity was measured using TopCount (PerkinElmer). HER2 kinase inhibitory rate (%) of the test compound was calculated by the following formula: […]

Structure (SMILES) | inhibitory rate (%) at 1.0 μL [%]
Cl.Cn1c(Cl)cc2ncnc(Nc3ccc(Oc4cccc5sncc45)c(Cl)c3)c21 [Example 2, N-[4-(1,2-benzoisothiazol-4-yloxy)-3-chlorophenyl]-6-chloro-5-methyl-5H-pyrrolo[3,2-d]pyrimidin-4-amine hydrochloride] | 100
CC(=O)NCCn1ccc2ncnc(Nc3ccc(Oc4cccc5sncc45)c(Cl)c3)c21 [Example 4, N-[2-(4-{[4-(1,2-benzoisothiazol-4-yloxy)-3-chlorophenyl]amino}-5H-pyrrolo[3,2-d]pyrimidin-5-yl)ethyl]acetamide] | 100
Clc1cc(N2CCn3ccc4ncnc2c43)ccc1Oc1cccc2sncc12 [Example 13, 4-[4-(1,2-benzoisothiazol-4-yloxy)-3-chlorophenyl]-5,6-dihydro-4H-pyrrolo[3,2,1-de]pteridine] | 100
OCCn1ccc2ncnc(Nc3ccc(Oc4ccc5cnsc5c4)c(Cl)c3)c21 [Example 20, 2-(4-{[4-(1,2-benzoisothiazol-6-yloxy)-3-chlorophenyl]amino}-5H-pyrrolo[3,2-d]pyrimidin-5-yl)ethanol] | 98
Cc1cc(Nc2ncnc3ccn(CCO)c23)ccc1Oc1cccc2sncc12 [Example 31, 2-(4-{[4-(1,2-benzoisothiazol-4-yloxy)-3-methylphenyl]amino}-5H-pyrrolo[3,2-d]pyrimidin-5-yl)ethanol] | 100
COc1cc(Nc2ncnc3ccn(CCO)c23)ccc1Oc1cccc2sncc12 [Example 44, 2-(4-{[4-(1,2-benzoisothiazol-4-yloxy)-3-methoxyphenyl]amino}-5H-pyrrolo[3,2-d]pyrimidin-5-yl)ethanol] | 98
CC(C)(CO)C(=O)NCCn1ccc2ncnc(Nc3cc(F)c(Oc4cccc5sncc45)c(Cl)c3)c21 [Example 52, N-[2-(4-{[4-(1,2-benzoisothiazol-4-yloxy)-3-chloro-5-fluorophenyl]amino}-5H-pyrrolo[3,2-d]pyrimidin-5-yl)ethyl]-3-hydroxy-2,2-dimethylpropanamide] | 99
CC(C)(N)C(=O)NCCn1ccc2ncnc(Nc3ccc(Oc4cccc5sncc45)c(Cl)c3)c21 [Example 60, N-[2-(4-{[4-(1,2-benzoisothiazol-4-yloxy)-3-chlorophenyl]amino}-5H-pyrrolo[3,2-d]pyrimidin-5-yl)ethyl]-2-methylalaninamide] | 100
